In the Deep4Chem optical property database:
Values belong to the molecule of their own block, whether it stands above or below them.

Experiment: solvent given as SMILES

SMILES: c1ccc(-c2cnc3nn4ccccc4c3c2)cc1
- emission maximum (in C1CCOC1): 415 nm

SMILES: c1ccc2c(c1)Sc1ccccc1N2c1ccc2c(c1)C1(CCCC1)c1cc(N3c4ccccc4Sc4ccccc43)ccc1-2
- emission maximum (in Cc1ccccc1): 491 nm

SMILES: Cc1ccc(-n2c(-c3cccc4cc[nH]c34)nc3c4ccccc4c4ccccc4c32)cc1
- emission maximum (in Cc1ccccc1): 377 nm

SMILES: CSC1=C(C)C2=C(c3ccc(C)cc3)c3c(C)c(Cl)c(C)n3[B-](F)(F)[N+]2=C1C
- emission maximum (in C1CCOC1): 655 nm

SMILES: c1ccc2c[n+]3ccccc3cc2c1
- emission maximum (in O): 404 nm

SMILES: c1ccc2c(c1)Cc1ccccc1N2c1c2ccccc2cc2ccccc12
- emission maximum (in Cc1ccccc1): 535 nm

SMILES: N#CC(C#N)=Cc1ccc(-c2ccc(-c3nc4ccccc4s3)c(O)c2)s1
- emission maximum (in CCO): 499 nm
- emission maximum (in ClCCl): 503 nm
- emission maximum (in O): 609 nm

SMILES: CCOC(=O)c1cc(C(=O)OCC)c2cc(O)ccc2n1
- emission maximum (in CCO): 466 nm

SMILES: c1cc(N2CCCC2)ccn1
- emission maximum (in CC1CCCCC1): 313 nm
- emission maximum (in CCO): 313 nm
- emission maximum (in ClC(Cl)Cl): 313 nm

SMILES: CCCCCCC(CCCCCC)N1C(=O)c2cccc3c(-c4ccc(OC)c5ccccc45)ccc(c23)C1=O
- emission maximum (in CCCCCC): 427.1 nm
- emission maximum (in CCCCCCCCCCCCCC): 431.7 nm
- emission maximum (in CCCCCCCCCCCO): 532.4 nm
- emission maximum (in CCCCO): 576.8 nm
- emission maximum (in CN(C)C=O): 581.8 nm
- emission maximum (in Cc1ccccc1): 478 nm
- emission maximum (in ClC(Cl)Cl): 509.7 nm

SMILES: COc1cc(C2=c3c(c4ccc(C(C)(C)C)cc4c4c(OC)c(OC)c(OC)cc34)=[N+]3C2=Nc2c(-c4cc(OC)c(OC)c(OC)c4)c4c5cc(OC)c(OC)c(OC)c5c5cc(C(C)(C)C)ccc5c4n2[B-]3(F)F)cc(OC)c1OC
- emission maximum (in Cc1ccccc1): 820 nm

SMILES: CN(C)c1ccc(-c2nc3cc(C(F)(F)F)ccc3n2-c2ccccc2)cc1
- emission maximum (in CC#N): 406 nm

SMILES: C(#Cc1ccccc1)c1ccccc1
- emission maximum (in CO): 307 nm
- emission maximum (in ClC(Cl)Cl): 320 nm
- emission maximum (in ClCCl): 302 nm

SMILES: CC1(C)c2ccccc2N(c2ccc(-c3nnc(-c4ccc(N5c6ccccc6C(C)(C)c6ccccc65)cc4)o3)cc2)c2ccccc21
- emission maximum (in Cc1ccccc1): 461 nm
- emission maximum (in O=P(c1ccccc1)(c1ccccc1)c1ccccc1Oc1ccccc1P(=O)(c1ccccc1)c1ccccc1): 472 nm

SMILES: COc1ccc(N(c2ccc(C=C(c3ccccc3)c3ccccc3)cc2)c2ccc(C=C(c3ccccc3)c3ccccc3)cc2)cc1
- emission maximum (in Cc1ccccc1): 477 nm

SMILES: COc1cc(N(CC(=O)[O-])CC(=O)[O-])c2ncccc2c1
- emission maximum (in O): 487 nm

SMILES: CC(C)(C)c1ccc(-n2c(-c3ccc(-c4cccc(-c5c(-c6ccccc6)nc6ccccn56)c4)cc3)nc3c4ccccc4c4ccccc4c32)cc1
- emission maximum (in ClCCl): 417 nm

SMILES: Nc1ncnc2c1c(C#Cc1ccc3ccccc3c1)cn2[C@H]1C[C@H](O)[C@@H](CO)O1
- emission maximum (in CC#N): 400 nm
- emission maximum (in CCO): 371 nm
- emission maximum (in CCOC(C)=O): 383 nm
- emission maximum (in CO): 377 nm
- emission maximum (in ClC(Cl)Cl): 374 nm

SMILES: FC(F)(F)c1ccc(C2=CC3=c4cc(-c5ccc(C(F)(F)F)cc5)c5nc(C(F)(F)C(F)(F)C(F)(F)F)nc6c(-c7ccc(C(F)(F)F)cc7)cc(c4c65)C4=CC(c5ccc(C(F)(F)F)cc5)=C5N=C(C(F)(F)C(F)(F)C(F)(F)F)N=C2C5C43)cc1 (stereo not drawn)
- emission maximum (in C1CCOC1): 512 nm

SMILES: O=S1(=O)c2ccc(-c3ccc(N(c4ccccc4)c4ccccc4)cc3)cc2C2(c3ccccc3-c3ccccc32)c2cc(-c3ccc(N(c4ccccc4)c4ccccc4)cc3)ccc21
- emission maximum (in CC(C)=O): 477.11 nm
- emission maximum (in CCCCCC): 398.37 nm
- emission maximum (in CN(C)C=O): 491.2 nm
- emission maximum (in Cc1ccccc1): 425.46 nm
- emission maximum (in ClCCl): 465 nm

SMILES: c1ccc([Si]2(c3ccccc3)c3ccccc3-c3cc4c(cc32)-c2ccccc2[Si]4(c2ccccc2)c2ccccc2)cc1
- emission maximum (in ClCCl): 395 nm

SMILES: Nc1ccc2c(c1)NC(=O)CC(=O)N2
- emission maximum (in CS(C)=O): 385 nm

SMILES: Cc1ccc(N(c2ccc(C)cc2)c2ccc(-c3ccc(C=C(C#N)C#N)s3)cc2)cc1
- emission maximum (in ClC(Cl)Cl): 670 nm

SMILES: CCCCOC(=O)c1cc(Cl)c2c3c(Cl)cc4c5c(cc(Cl)c(c6c(Oc7ccc(C(=O)OC)cc7)cc(C(=O)OCCCC)c1c26)c53)C(=O)N(c1c(C(C)C)cccc1C(C)C)C4=O
- emission maximum (in Cc1ccccc1): 560 nm

SMILES: CN(C)c1ccc(C2=Nc3sc4cc(C(F)(F)F)ccc4[n+]3[B-](F)(F)O2)cc1
- emission maximum (in C1CCOC1): 486 nm
- emission maximum (in CC#N): 500 nm
- emission maximum (in CC(C)=O): 495 nm
- emission maximum (in Cc1ccccc1): 460 nm
- emission maximum (in ClCCl): 478 nm

SMILES: O=c1c2ccccc2c2c(C#C[Si](c3ccccc3)(c3ccccc3)c3ccccc3)c3c(=O)c4ccccc4c3c(C#C[Si](c3ccccc3)(c3ccccc3)c3ccccc3)c12
- emission maximum (in ClC(Cl)Cl): 570 nm

SMILES: Cc1cc2cc(C)c3c4ccccc4[nH]c3c2o1
- emission maximum (in ClCCl): 338 nm

SMILES: O=P1(c2ccccc2)c2cccc3ccc4ccc1n4c23 (stereo not drawn)
- emission maximum (in ClCCl): 496 nm

SMILES: C(#Cc1cccc(C#Cc2ccc(-n3c4ccccc4c4ccccc43)cc2)c1)c1ccc(-n2c3ccccc3c3ccccc32)cc1
- emission maximum (in CC#N): 425 nm
- emission maximum (in CCCCC): 366 nm
- emission maximum (in CO): 412 nm
- emission maximum (in Cc1ccccc1): 374 nm
- emission maximum (in ClC(Cl)Cl): 368 nm
- emission maximum (in ClCCl): 394 nm

SMILES: COC(=O)c1ccc(/C=C2\N=C(c3ccccc3)NC2=O)cc1
- emission maximum (in C1COCCO1): 461 nm

SMILES: O=c1c2ccc(N3CCCCC3)cc2oc2cc(N3CCCCC3)ccc12
- emission maximum (in CO): 448.15 nm
- emission maximum (in ClCCl): 407.47 nm

SMILES: CCCCC1(c2ccccc2)Nc2c(-c3ccc(OC)cc3)ccc(-c3ccc(OC)cc3)c2N=C1c1ccccc1 (stereo not drawn)
- emission maximum (in C1CCOC1): 547 nm
- emission maximum (in CC#N): 556 nm
- emission maximum (in CCCCCC): 517 nm
- emission maximum (in CN(C)C=O): 568 nm
- emission maximum (in Cc1ccccc1): 525 nm
- emission maximum (in ClC(Cl)Cl): 537 nm

SMILES: Oc1cccc(/N=C/c2ccccc2Oc2ccccc2)c1
- emission maximum (in C1CCCCC1): 402 nm
- emission maximum (in C1COCCO1): 406 nm
- emission maximum (in CC#N): 395 nm
- emission maximum (in CC(C)=O): 415 nm
- emission maximum (in CC(C)CO): 387 nm
- emission maximum (in CC(C)O): 406 nm
- emission maximum (in CCCCC): 403 nm
- emission maximum (in CCCCCCCCO): 410 nm
- emission maximum (in CCCCCCCO): 410 nm
- emission maximum (in CCCCCCO): 400 nm
- emission maximum (in CCCCO): 416 nm
- emission maximum (in CCCCOC(C)=O): 404 nm
- emission maximum (in CCCO): 395 nm
- emission maximum (in CCOC(C)=O): 420 nm
- emission maximum (in CCOCC): 404 nm
- emission maximum (in CO): 380 nm
- emission maximum (in CS(C)=O): 396 nm
- emission maximum (in Cc1ccccc1): 412 nm
- emission maximum (in Cc1ccccc1C): 403 nm
- emission maximum (in ClC(Cl)Cl): 415 nm
- emission maximum (in ClCCl): 407 nm
- emission maximum (in N#Cc1ccccc1): 385 nm
- emission maximum (in OCCO): 418 nm
- emission maximum (in c1ccccc1): 414 nm

The next lines start with the values.

- emission maximum (in ClC(Cl)Cl): 613 nm
SMILES: CCCCCCCCCCOc1ccc2cc(C3=C4C(=O)N(CC(OCC)OCC)C(c5cc6ccc(OCCCCCCCCCC)cc6o5)=C4C(=O)N3CC(OCC)OCC)oc2c1

- emission maximum (in ClCCl): 431 nm
SMILES: c1ccc(-c2c3ccccc3c(-c3ccc4ccccc4c3)c3ccccc23)nc1

- emission maximum (in C1CCOC1): 546 nm
- emission maximum (in CCCCCC): 443 nm
- emission maximum (in ClC(Cl)Cl): 495 nm
- emission maximum (in ClCCl): 568 nm
SMILES: O=C1c2cccc3c(-n4c5ccccc5c5ccccc54)ccc(c23)C(=O)N1c1ccccc1

- emission maximum (in ClC(Cl)Cl): 482 nm
SMILES: CCN(CC)c1ccc2cc(-c3ccc(-c4ccc5c6ccccc6c6c7cc(-c8ccc(-c9cc%10ccc(N(CC)CC)cc%10oc9=O)cc8)ccc7c7ccccc7c6c5c4)cc3)c(=O)oc2c1

- emission maximum (in ClC(Cl)Cl): 570 nm
SMILES: N#Cc1nc(N(Cc2ccccc2F)Cc2ccccc2F)c(C#N)nc1N(Cc1ccccc1F)Cc1ccccc1F

- emission maximum (in C1CCOC1): 576 nm
- emission maximum (in CC#N): 613 nm
- emission maximum (in CCCCCC): 653 nm
- emission maximum (in CCO): 610 nm
- emission maximum (in CCOC(C)=O): 571 nm
- emission maximum (in CS(C)=O): 631 nm
- emission maximum (in ClCCl): 578 nm
- emission maximum (in O): 674 nm
SMILES: CCCCCCCCCCCCOc1cc2cc(N(C)C)ccc2cc1C=C(C#N)C#N

- emission maximum (in CCO): 569 nm
- emission maximum (in O): 578 nm
SMILES: CN(C)c1ccc2c(-c3ccc(C(=O)[O-])cc3C(=O)[O-])c3ccc(=[N+](C)C)cc-3oc2c1

- emission maximum (in ClCCl): 558 nm
SMILES: CCN(CC)c1c2ccc(=[N+]3CCCCC3)cc-2oc2cc(N3CCCCC3)ccc12

- emission maximum (in CCCCCCC): 610 nm
SMILES: c1ccc2c3c(ccc2c1)-c1cccc2cc4ccccc4c-3c12

- emission maximum (in C1COCCO1): 564 nm
- emission maximum (in CC#N): 574 nm
- emission maximum (in CCO): 570 nm
- emission maximum (in CCOC(C)=O): 566 nm
- emission maximum (in O): 577 nm
SMILES: COc1ccc(/C=C/C2=NC(=C\c3ccncc3)/C(=O)N2C)cc1

- emission maximum (in CO): 385.59 nm
SMILES: CCC1(CC)c2cc(-c3ccc4c(c3)C(CC)(CC)c3cc(C(C)(C)C)ccc3-4)ccc2-c2ccc(-c3ccc4c(c3)C(CC)(CC)c3cc(C(C)(C)C)ccc3-4)cc21

- emission maximum (in ClC(Cl)Cl): 410 nm
SMILES: CCCCn1c2ccccc2c2ccc3c4cc(-c5ccc6ccccc6c5)ccc4n(CCCC)c3c21

- emission maximum (in CN(C)C=O): 419 nm
SMILES: CCN(CC)c1ccc(-c2nc(Oc3ccc(-c4nc5ccccc5s4)cc3)nc(Oc3ccc(-c4nc5ccccc5s4)cc3)n2)cc1

- emission maximum (in C1CCOC1): 374 nm
- emission maximum (in CC#N): 366 nm
- emission maximum (in CS(C)=O): 392 nm
- emission maximum (in ClC(Cl)Cl): 380 nm
SMILES: COc1cccc2cc(-c3ccc([N+](=O)[O-])cc3)c(=N)oc12

- emission maximum (in C1CCOC1): 605 nm
SMILES: CCCCCOc1cc2oc(=O)c3c4ccc(N(c5ccc(C)cc5)c5ccc(C)cc5)cc4c4ccc5cccc6c(c1)c2c3c4c56

- emission maximum (in ClCCl): 560 nm
SMILES: CCCCCCn1c(=O)c2c3[nH]c4ccccc4oc3c3c(=O)n(CCCCCC)c(=O)c3c2c1=O

- emission maximum (in C1CCOC1): 493 nm
SMILES: COc1ccc(-c2cc3c(cc2OC)-c2c(c4c(c5c2-c2cc(OC)c(-c6ccc(OC)cc6)cc2C5)C(=O)N(CCC(C)C)C4=O)C3)cc1

- emission maximum (in ClC(Cl)Cl): 734 nm
SMILES: COc1ccc2c(c1)CCc1c(-c3ccccc3)c3n(c1-2)[B-](F)(F)[N+]1=C2C(=C(c4ccccc4)C1=N3)CCc1ccccc12
